Experimental data reported in patent US6514911B1, “Substituted oxadiazines useful as pesticides” (Uniroyal Chemical Company, Inc., priority 2002, dated 2003).

How the values were obtained:
[1] = tested on: velvetleaf (Abutilon theophrasti Medik.) (VL); assay: Preemergence herbicide test, soil drench, velvetleaf; format: in vivo; conditions: 10 lbs/A (11.2 kg/ha) soil drench, two weeks after treatment, vs untreated checks; for pest or weed control at 11208.5 g/ha: Abutilon theophrasti, 336 h, read-out: Percent Weed Control VL
Procedure: (§1) To illustrate the effectiveness of the previously described substituted oxadiazines of this invention as preemergence herbicides, 300 mg of the chemical was dissolved in a composition comprising 10 mL acetone to which 30 mg of tile emulsifying agent, ethoxylated sorbitan monolaurate, was added. The solution was diluted to 100 mL with distilled water. Ten milliliters of this 3000 ppm solution was diluted to 250 ppm with distilled water. The chemical was applied at the rate of 10 pounds/acre (11.2 kg/ha) by drenchings 46 mL of the 250 ppm solution on the surface of soil in 4½ inch (11.25 cm) plastic pots wherein seeds of the following weeds had been planted: velvetleaf (Abutilon theophrasti Medik.) (VL), The percent control of the weeds compared to untreated checks was determined two weeks after treatment. TABLE 1 summarizes the results achieved with compounds formulated as indicated above, and the data clearly indicate the good to excellent herbicidal efficacy of compositions of this invention.

[2] = tested on: jimsonweed (Datura stramonium L.) (JW); assay: Preemergence herbicide test, soil drench, jimsonweed; format: in vivo; conditions: 10 lbs/A (11.2 kg/ha) soil drench, two weeks after treatment, vs untreated checks
Procedure: as §1, with “jimsonweed (Datura stramonium L.) (JW),” for “velvetleaf (Abutilon theophrasti Medik.) (VL),”

[3] = tested on: prickly sida (Sida spinosa L.) (PS); assay: Preemergence herbicide test, soil drench, prickly sida; format: in vivo; conditions: Sida spinosa, 336 h, 10 lbs/A (11.2 kg/ha) soil drench, two weeks after treatment, vs untreated checks, read-out: Percent Weed Control PS
Procedure: To illustrate the effectiveness of the previously described substituted oxadiazines of this invention as preemergence herbicides, 300 mg of the chemical was dissolved in a composition comprising 10 mL acetone to which 30 mg of tile emulsifying agent, ethoxylated sorbitan monolaurate, was added. The solution was diluted to 100 mL with distilled water. Ten milliliters of this 3000 ppm solution was diluted to 250 ppm with distilled water. […]
prickly sida (Sida spinosa L.) (PS),
(§2) The percent control of the weeds compared to untreated checks was determined two weeks after treatment. TABLE 1 summarizes the results achieved with compounds formulated as indicated above, and the data clearly indicate the good to excellent herbicidal efficacy of compositions of this invention.

[4] = tested on: tall morningglory (Ipomoea purpurea (L.) Roth) (TM); assay: Preemergence herbicide test, soil drench, tall morningglory; format: in vivo; conditions: 10 lbs/A (11.2 kg/ha) soil drench, two weeks after treatment, vs untreated checks; for pest or weed control at 11208.5 g/ha: Ipomoea, 336 h, read-out: Percent Weed Control TM
Procedure: as §1, with “tall morningglory (Ipomoea purpurea (L.) Roth) (TM),” for “velvetleaf (Abutilon theophrasti Medik.) (VL),”

[5] = tested on: barnyardgrass (Echinochloa crus-galli (L.) Beauv.) (BG); assay: Preemergence herbicide test, soil drench, barnyardgrass; format: in vivo; conditions: 10 lbs/A (11.2 kg/ha) soil drench, two weeks after treatment, vs untreated checks; for pest or weed control at 11208.5 g/ha: Echinochloa crus-galli, 336 h, read-out: Percent Weed Control BG
Procedure: as §1, with “barnyardgrass (Echinochloa crus-galli (L.) Beauv.) (BG), and” for “velvetleaf (Abutilon theophrasti Medik.) (VL),”

[6] = tested on: switchgrass (Panicum virgahim L.) (SG); assay: Preemergence herbicide test, soil drench, switchgrass; format: in vivo; conditions: 10 lbs/A (11.2 kg/ha) soil drench, two weeks after treatment, vs untreated checks; for pest or weed control at 11208.5 g/ha: Panicum, 336 h, read-out: Percent Weed Control SG
Procedure: as §1, with “planted:” for “planted: velvetleaf (Abutilon theophrasti Medik.) (VL), The percent control of the weeds compared to untreated checks was determined two weeks after treatment. TABLE 1 summarizes the results achieved with compounds formulated as indicated above, and the data clearly indicate the good to excellent herbicidal efficacy of compositions of this invention.”
switchgrass (Panicum virgahim L.) (SG),
as §2

[7] = tested on: green foxtail (Setaria virdis (L.) Beauv.) (GF); assay: Preemergence herbicide test, soil drench, green foxtail; format: in vivo; conditions: 10 lbs/A (11.2 kg/ha) soil drench, two weeks after treatment, vs untreated checks; for pest or weed control at 11208.5 g/ha: Setaria, 336 h, read-out: Percent Weed Control GF
Procedure: as §1, with “41⁄2” for “4½”, “green foxtail (Setaria […].) Beauv.) (GF).” for “velvetleaf (Abutilon theophrasti Medik.) (VL),”

[8] = tested on: insects; assay: Insecticidal properties (no method given); conditions: statement in words, no test details

Structure (SMILES) | pest or weed control at 11208.5 g/ha [1] [%] | Percent Weed Control JW [2] [%] | pest or weed control at 11208.5 g/ha [3] [%] | pest or weed control at 11208.5 g/ha [4] [%] | pest or weed control at 11208.5 g/ha [5] [%] | pest or weed control at 11208.5 g/ha [6] [%] | pest or weed control at 11208.5 g/ha [7] [%] | Percent Weed Control VL [1] [%] | Percent Weed Control TM [4] [%] | Percent Weed Control BG [5] [%] | Percent Weed Control SG [6] [%] | Percent Weed Control GF [7] [%] | insecticidal properties [8]
FC(F)(F)C(F)(F)C(F)(F)C1=NC(C(F)(F)F)(C(F)(F)F)N=C(c2ccccc2)O1 [2-(heptafluoropropyl)-6-phenyl-4,4-bis(trifluoromethyl)-4H-1,3,5-oxadiazine, reference compound] | 0 | 0 | 0 | 0 | 0 | 0 | 0 |  |  |  |  |  | 
FC(F)(F)c1cccc(C2=NC(C(F)(F)F)(C(F)(F)F)N=C(C(F)(F)C(F)(F)F)O2)c1 [Compound 14, 2-(pentafluoroethyl)-4,4-bis(trifluoromethyl)-6-{(3-trifluoromethyl)phenyl}-4H-1,3,5-oxadiazine] |  | 100 |  |  |  |  |  | 100 | 100 | 100 | 100 | 100 | found to have insecticidal properties
FC(F)(F)Oc1ccc(C2=NC(C(F)(F)F)(C(F)(F)F)N=C(C(F)(F)C(F)(F)F)O2)cc1 [Compound 16, 2-(pentafluoroethyl)-6-{(4-trifluoromethoxy)phenyl}-4,4-bis(trifluoromethyl)-4H-1,3,5-oxadiazine] |  | 100 |  |  |  |  |  | 100 | 100 | 100 | 100 | 100 | found to have insecticidal properties
COc1cccc(C2=NC(C(F)(F)F)(C(F)(F)F)N=C(C(F)(F)C(F)(F)F)O2)c1 [Compound 23, 2-(3-methoxyphenyl)-6-(pentafluoroethyl)-4,4-bis(trifluoromethyl)-4H-1,3,5-oxadiazine] | 100 | 100 |  | 100 | 0 | 50 | 50 |  |  |  |  |  | 
FC(F)(F)C(F)(F)C(F)(F)C1=NC(C(F)(F)F)(C(F)(F)F)N=C(c2cccc(Cl)c2)O1 [Compound 26, 2-(3-chlorophenyl)-6-(heptafluoropropyl)-4,4-bis(trifluoromethyl)-4H-1,3,5-oxadiazine] | 100 | 100 |  | 100 | 100 | 100 | 100 |  |  |  |  |  | found to have insecticidal properties
